In the supplement of paper PMC10307832:

Legend:
Experiment in all cases: relative viability (nuclei count vs DMSO), 5 days (fraction); higher = more cells survive
[1] = tested on: 201T
In short: (§1)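 Cells from lung cancer lines were seeded into 1536-well plates and, one day later, dosed by pin tool. Treatments were either a single drug or a fixed dose of an anchor drug with five library-drug doses (not always all listed) in √10 steps. After 5 days, nuclei were stained in a one-step fixation (final 0.05% Triton X-100, 1% formaldehyde, 1 ug/ml Hoechst) and counted on 4× images, and relative viability is the treated-to-vehicle nuclei ratio, as the median of duplicate plates.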

[2] = tested on: A-427
In short: as §1

[3] = tested on: COR-L23
In short: as §1

[4] = tested on: HARA
In short: as §1

[5] = tested on: HCC-78
In short: as §1

[6] = tested on: LCLC-103H
In short: as §1

[7] = tested on: LCLC-97TM1
In short: as §1

[8] = tested on: LK-2
In short: as §1

[9] = tested on: LOU-NH91
In short: as §1

[10] = tested on: LXF-289
In short: as §1

[11] = tested on: NCI-H1650
In short: as §1

[12] = tested on: NCI-H1651
In short: as §1

[13] = tested on: NCI-H1793
In short: as §1

[14] = tested on: NCI-H2347
In short: as §1

[15] = tested on: NCI-H23
In short: as §1

[16] = tested on: NCI-H2405
In short: as §1

[17] = tested on: NCI-H520
In short: as §1

[18] = tested on: NCI-H647
In short: as §1

[19] = tested on: NCI-H838
In short: as §1

[20] = tested on: PC-3 [JPC-3]
In short: as §1

[21] = tested on: RERF-LC-KJ
In short: as §1

[22] = tested on: UMC-11
In short: as §1

In the case of CCNC(=O)c1noc(-c2cc(C(C)C)c(O)cc2O)c1-c1ccc(CN2CCOCC2)cc1 [Luminespib] + CS(=O)(=O)N1CCN(Cc2cc3nc(-c4cccc5[nH]ncc45)nc(N4CCOCC4)c3s2)CC1 [Pictilisib] (partner 1 µM), the relative viability ([1]; first compound 0.002 µM) is reported as 0.647, the relative viability ([1]; first compound 0.006325 µM) is reported as 0.693 and the relative viability ([1]; first compound 0.02 µM) is reported as 0.649. The relative viability ([1]; first compound 0.06325 µM) was 0.721, the relative viability ([1]; first compound 0.2 µM) was 0.58 and the relative viability ([2]; first compound 0.002 µM) was 0.62. The relative viability ([2]; first compound 0.006325 µM) was 0.634, the relative viability ([2]; first compound 0.02 µM) was 0.441 and the relative viability ([2]; first compound 0.06325 µM) was 0.733. The relative viability ([2]; first compound 0.2 µM) was 0.35, the relative viability ([3]; first compound 0.002 µM) was 0.856 and the relative viability ([3]; first compound 0.006325 µM) was 0.633. The relative viability ([3]; first compound 0.02 µM) was 0.368, the relative viability ([3]; first compound 0.06325 µM) was 0.0587 and the relative viability ([3]; first compound 0.2 µM) was 0.0601. For the same compound, the relative viability ([4]; first compound 0.002 µM) was 0.295, the relative viability ([4]; first compound 0.006325 µM) was 0.396 and the relative viability ([4]; first compound 0.02 µM) was 0.174. For the same compound, the relative viability ([4]; first compound 0.06325 µM) was 0.531, the relative viability ([4]; first compound 0.2 µM) was 0.0744 and the relative viability ([5]; first compound 0.002 µM) was 0.204. For the same compound, the relative viability ([5]; first compound 0.06325 µM) was 0.267, the relative viability ([5]; first compound 0.2 µM) was 0.279 and the relative viability ([6]; first compound 0.002 µM) was 0.629. The relative viability ([6]; first compound 0.006325 µM) was 0.5, the relative viability ([6]; first compound 0.02 µM) was 0.466 and the relative viability ([6]; first compound 0.06325 µM) was 0.651. The relative viability ([6]; first compound 0.2 µM) was 0.271, the relative viability ([7]; first compound 0.002 µM) was 0.17 and the relative viability ([7]; first compound 0.006325 µM) was 0.223. It also gave a relative viability ([7]; first compound 0.02 µM) of 0.113, a relative viability ([7]; first compound 0.06325 µM) of 0.103 and a relative viability ([7]; first compound 0.2 µM) of 0.0923. For the same compound, the relative viability ([8]; first compound 0.002 µM) was 0.569, the relative viability ([8]; first compound 0.006325 µM) was 0.548 and the relative viability ([8]; first compound 0.02 µM) was 0.373. For the same compound, the relative viability ([8]; first compound 0.06325 µM) was 0.312, the relative viability ([8]; first compound 0.2 µM) was 0.218 and the relative viability ([9]; first compound 0.002 µM) was 0.53. It also gave a relative viability ([9]; first compound 0.006325 µM) of 0.566, a relative viability ([9]; first compound 0.02 µM) of 0.469 and a relative viability ([9]; first compound 0.06325 µM) of 0.367. It also gave a relative viability ([9]; first compound 0.2 µM) of 0.358, a relative viability ([10]; first compound 0.002 µM) of 0.75 and a relative viability ([10]; first compound 0.006325 µM) of 0.809. It also gave a relative viability ([10]; first compound 0.02 µM) of 0.714, a relative viability ([10]; first compound 0.06325 µM) of 0.121 and a relative viability ([10]; first compound 0.2 µM) of 0.087. The relative viability ([11]; first compound 0.002 µM) was 0.593, the relative viability ([11]; first compound 0.006325 µM) was 0.653 and the relative viability ([11]; first compound 0.02 µM) was 0.199. The relative viability ([11]; first compound 0.06325 µM) was 0.129, the relative viability ([11]; first compound 0.2 µM) was 0.106 and the relative viability ([12]; first compound 0.002 µM) was 0.592. For the same compound, the relative viability ([12]; first compound 0.006325 µM) was 0.608, the relative viability ([12]; first compound 0.02 µM) was 0.403 and the relative viability ([12]; first compound 0.06325 µM) was 0.136. The relative viability ([12]; first compound 0.2 µM) was 0.162, the relative viability ([13]; first compound 0.002 µM) was 0.313 and the relative viability ([13]; first compound 0.006325 µM) was 0.342. It also gave a relative viability ([13]; first compound 0.02 µM) of 0.12, a relative viability ([13]; first compound 0.06325 µM) of 0.168 and a relative viability ([13]; first compound 0.2 µM) of 0.194. It also gave a relative viability ([14]; first compound 0.002 µM) of 0.751, a relative viability ([14]; first compound 0.006325 µM) of 0.609 and a relative viability ([14]; first compound 0.02 µM) of 0.45. It also gave a relative viability ([14]; first compound 0.06325 µM) of 0.54, a relative viability ([14]; first compound 0.2 µM) of 0.4 and a relative viability ([15]; first compound 0.002 µM) of 0.475. For the same compound, the relative viability ([15]; first compound 0.006325 µM) was 0.486, the relative viability ([15]; first compound 0.02 µM) was 0.374 and the relative viability ([15]; first compound 0.06325 µM) was 0.134. It also gave a relative viability ([15]; first compound 0.2 µM) of 0.157, a relative viability ([16]; first compound 0.002 µM) of 0.514 and a relative viability ([16]; first compound 0.006325 µM) of 0.298. The relative viability ([16]; first compound 0.02 µM) was 0.301, the relative viability ([16]; first compound 0.06325 µM) was 0.147 and the relative viability ([16]; first compound 0.2 µM) was 0.142. The relative viability ([17]; first compound 0.002 µM) was 0.298, the relative viability ([17]; first compound 0.006325 µM) was 0.334 and the relative viability ([17]; first compound 0.02 µM) was 0.209. The relative viability ([17]; first compound 0.06325 µM) was 0.176, the relative viability ([17]; first compound 0.2 µM) was 0.196 and the relative viability ([18]; first compound 0.002 µM) was 0.511. The relative viability ([18]; first compound 0.006325 µM) was 0.439, the relative viability ([18]; first compound 0.02 µM) was 0.249 and the relative viability ([18]; first compound 0.06325 µM) was 0.0858. For the same compound, the relative viability ([18]; first compound 0.2 µM) was 0.0845, the relative viability ([19]; first compound 0.002 µM) was 0.48 and the relative viability ([19]; first compound 0.006325 µM) was 0.441. For the same compound, the relative viability ([19]; first compound 0.02 µM) was 0.223, the relative viability ([19]; first compound 0.06325 µM) was 0.117 and the relative viability ([19]; first compound 0.2 µM) was 0.111. The relative viability ([20]; first compound 0.002 µM) was 0.756, the relative viability ([20]; first compound 0.006325 µM) was 0.726 and the relative viability ([20]; first compound 0.02 µM) was 0.626. It also gave a relative viability ([20]; first compound 0.06325 µM) of 0.578, a relative viability ([20]; first compound 0.2 µM) of 0.286 and a relative viability ([21]; first compound 0.002 µM) of 0.665. The relative viability ([21]; first compound 0.006325 µM) was 0.636, the relative viability ([21]; first compound 0.02 µM) was 0.375 and the relative viability ([21]; first compound 0.06325 µM) was 0.231. For the same compound, the relative viability ([21]; first compound 0.2 µM) was 0.182, the relative viability ([22]; first compound 0.002 µM) was 0.43 and the relative viability ([22]; first compound 0.006325 µM) was 0.764. For the same compound, the relative viability ([22]; first compound 0.02 µM) was 0.261, the relative viability ([22]; first compound 0.06325 µM) was 0.603 and the relative viability ([22]; first compound 0.2 µM) was 0.185.
